Structures are written as SMILES. Where two headings read alike, the source gives them in different places.

Data set [1] relates to Nrf2 (Oxidative stress). The data set can be described thus: Nrf2 CALUX. Format: cell-based, human. The conditions noted are these: 24 h exposure, lowest effect level FI=1.5, means from 3 assay runs. As for the experimental part:
(§1) After 24 h, exposure medium was prepared. […] All samples were tested in triplicates. […] Fig. SM_4. […] Fig. SM_4.
(§2) Supplementary Material SM_4
(§3) Overview of CALUX assays.
(§4) This is defined as the concentration of test compound […]
(§5) for an antagonist assay is a PC20.
(§6) PC = positive control. FI = fold induction. PC10: concentration where test compound causes an activation equal to 10% of the maximum effect (positive control). PC20: concentration where test compound causes […]
(§7) FI=1.5: concentration where test
(§8) (A) exemplary graph of concentration- […]
(§9) receptor antagonism assay with PC20 as lowest-effect-level. (C) exemplary graph for assay with 1.5 fold inductionas lowest effect level. 9

Data set [2] concerns the target T1, Pregnane X receptor (Homo sapiens, UniProt O75469).
T1 construct: host or cells: U-2 OS
T1 sequence (O75469 1-434): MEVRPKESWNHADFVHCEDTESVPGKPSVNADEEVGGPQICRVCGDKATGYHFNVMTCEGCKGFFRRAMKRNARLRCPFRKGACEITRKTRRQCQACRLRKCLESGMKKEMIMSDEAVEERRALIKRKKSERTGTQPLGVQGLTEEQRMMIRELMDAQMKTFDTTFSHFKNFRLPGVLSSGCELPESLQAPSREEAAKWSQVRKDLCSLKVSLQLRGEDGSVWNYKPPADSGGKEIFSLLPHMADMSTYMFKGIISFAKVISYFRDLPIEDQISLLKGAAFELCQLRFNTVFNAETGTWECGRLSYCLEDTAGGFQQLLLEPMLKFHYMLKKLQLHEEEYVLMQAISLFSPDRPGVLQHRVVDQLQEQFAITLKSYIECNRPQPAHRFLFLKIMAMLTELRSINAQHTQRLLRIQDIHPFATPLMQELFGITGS
The data set can be described thus: PXR CALUX. The data set is classed as cell-based. The following applies: 24 h exposure, lowest effect level PC10, means from 3 assay runs. As for the experimental part:
as §1, §2, §3, §4, §5, §6, §7, §8, §9

The test system of data set [3] is Endoplasmic reticulum stress. The data set can be described thus: ESRE CALUX. The data set is classed as cell-based, human. The conditions noted are these: 24 h exposure, lowest effect level PC10, means from 3 assay runs. The method, then:
as §1, §2, §3, §4, §5, §6, §7, §8, §9

The test system of data set [4] is p53-dependent pathway activation / genotoxicity. The data set is classed as cell-based, human. The conditions noted are these: 24 h exposure, lowest effect level FI=1.5, means from 3 assay runs. As for the experimental part: as §1, §2, §3, §4, §5, §6, §7, §8, §9
Data set [5] relates to U-2 OS cells. The conditions noted are these: human.
Experimental: (§10) Wild-type U-2 OS cells (HTB-96) were obtained from ATCC.
(§11) CALUX® assay procedure: Testing was performed in non-blinded fashion. […] In brief, the assay was performed in assay medium, consisting of DMEM without phenol red indicator (Gibco) supplemented with 5% charcoal-stripped fetal calf serum (DCC), 1 × non-essential amino acids (Gibco) and 10 U/ml penicillin and 10 µg/ml streptomycin. A cell suspension in assay medium was made of 1 × 10^5 cells/ml, and white 384-wells plates were seeded with 30 µl cell suspension/well. After 24 h, exposure medium was prepared. A dilution series in 0.5 log unit increments of each test compound (in DMSO) was added to a 96-wells plate containing assay medium. Of this exposure mixture, 30 µl was added to the assay plates containing the CALUX® cells, resulting in a final DMSO concentration of 0.1%. Additionally, DMSO blanks and a full dose response curve of the reference compounds were included on each plate. All samples were tested in triplicates. The preparation of the compound dilution series as well as the exposure of the cells were performed on a Hamilton Starlet liquid handling robot coupled to a Cytomat incubator. […] Subsequently, the luciferase signal was measured in a luminometer (InfinitePro coupled to a Connect Stacker, both TECAN).
(§12) The point od departure (PoD) if all these assays is defined by a “lowest effect level”.
(§13) A typical endpoint for an agonist assay is a PC10. This is defined as the concentration of test compound
The target of data set [6] is T2, Progesterone receptor (Homo sapiens, UniProt P06401).
T2 construct: host or cells: U-2 OS
T2 sequence (P06401 1-933): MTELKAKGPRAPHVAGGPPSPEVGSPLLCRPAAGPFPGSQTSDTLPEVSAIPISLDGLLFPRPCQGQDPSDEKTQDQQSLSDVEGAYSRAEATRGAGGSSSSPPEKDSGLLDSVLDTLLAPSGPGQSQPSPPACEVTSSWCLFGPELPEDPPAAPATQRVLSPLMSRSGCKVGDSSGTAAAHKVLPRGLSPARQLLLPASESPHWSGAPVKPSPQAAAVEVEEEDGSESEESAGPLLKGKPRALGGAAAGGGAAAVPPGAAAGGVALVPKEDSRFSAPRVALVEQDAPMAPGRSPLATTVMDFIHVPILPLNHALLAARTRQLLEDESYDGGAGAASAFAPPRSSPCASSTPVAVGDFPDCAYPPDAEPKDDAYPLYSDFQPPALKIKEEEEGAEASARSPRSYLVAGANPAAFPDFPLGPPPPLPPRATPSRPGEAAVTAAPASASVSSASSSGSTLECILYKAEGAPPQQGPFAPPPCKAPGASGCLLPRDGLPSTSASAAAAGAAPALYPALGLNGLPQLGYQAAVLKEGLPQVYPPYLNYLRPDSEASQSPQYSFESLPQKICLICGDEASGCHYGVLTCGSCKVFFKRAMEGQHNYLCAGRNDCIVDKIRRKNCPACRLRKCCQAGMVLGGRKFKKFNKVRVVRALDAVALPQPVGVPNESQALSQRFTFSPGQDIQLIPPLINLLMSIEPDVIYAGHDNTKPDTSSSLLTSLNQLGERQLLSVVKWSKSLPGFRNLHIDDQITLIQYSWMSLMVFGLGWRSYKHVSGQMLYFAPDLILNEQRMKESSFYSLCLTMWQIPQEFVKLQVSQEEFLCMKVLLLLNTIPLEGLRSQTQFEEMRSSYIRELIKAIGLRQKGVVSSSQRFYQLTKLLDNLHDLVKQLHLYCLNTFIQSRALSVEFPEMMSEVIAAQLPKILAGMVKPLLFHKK
The data set can be described thus: PR-anti CALUX. The following applies: 24 h exposure, lowest effect level PC20, reference agonist at EC50, means from 3 assay runs. Format: cell-based. As for the experimental part:
as §1, §2, §3, §4, §5, §6, §7, §8, §9

Data set [7] concerns U-2 OS reporter cell lines battery. The data set can be described thus: CALUX reporter gene assay battery as a whole.
The conditions of data set [8]: pooled test systems of the NAM panel (all test methods).
Text: The resulting RSD (in percent of average) enables comparison between test methods. […] The data (normalized to the DMSO control) were collected from each partner and pooled for display.
We therefore determined the relative variation of solvent controls for 37 test endpoints (22 standard viability tests plus 15 functional endpoints).
Fig. 9 Characterization of the baseline variation (assay noise) of the NAM panel. a Variance of DMSO controls controls across different test methods. Each data point represents the standard deviation between technical replicates on the same plate, expressed as percent of average. The line indicates the average. b Variance of negative control compounds across test methods. […] SD standard deviation
Data set [9] relates to U-2 OS cells. The data set can be described thus: Cytotox CALUX. The conditions noted are these: for PoD cytotoxicity: 24 h exposure, lowest effect level PC20, means from 3 assay runs.
Experimental: as §10, §11, §12, §13
On the set-up of data set [10]: method as in Hardman JG 2001. The conditions noted are these: known Cmax in man; ref Hardman JG 2001; cited from earlier work.
[11] abbreviates: all CALUX assays, 13 concentrations, 24 h exposure.

With `CO[C@H]1/C=C/O[C@@]2(C)Oc3c(C)c(O)c4c(O)c(c(/C=N/N5CCN(C)CC5)c(O)c4c3C2=O)NC(=O)/C(C)=C\C=C\[C@H](C)[C@H](O)[C@@H](C)[C@@H](O)[C@@H](C)[C@H](OC(C)=O)[C@@H]1C` [Rifampicin], in data set [1], the “PoD Nrf2” value was 4.6 -log(M). The “PoD PXR - ago” value in data set [2] is listed as 7.1 -log(M). Further, the “PoD ESRE” value in [3] is 4.0 -log(M). In addition, the “PoD p53” value in data set [4] is 4.2 -log(M). The PoD cytotoxicity in data set [5] was determined as 4.0. Further, the “PoD PR - anta” value in data set [6] is 4.8 -log(M). Further, the “response profile over the CALUX battery (in words)” value in data set [7] is “additionally activated several stress pathway related assays”.
In the case of `C[n+]1ccc(-c2ccccc2)cc1` [MPP^+, methyl-phenyl-pyridinium], the “response profile over the CALUX battery (in words)” value in [7] (setting [11]) is given as “no effect”.
`CCOC(=O)C(C)(C)Oc1ccc(Cl)cc1` [Clofibrate]: the viability in data set [8] was determined as 100%. Besides, the “response profile over the CALUX battery (in words)” value in data set [7] (setting [11]) is reported as “no effect”.
Turning to `C=C(C)[C@H]1Cc2c(ccc3c2O[C@@H]2COc4cc(OC)c(OC)cc4[C@@H]2C3=O)O1` [Rotenone], the PoD cytotoxicity in [9] is on record as 5.7 -log(M). Moreover, the “PoD p53” value in [4] was 6.8 -log(M).
Turning to `Cc1noc(NS(=O)(=O)c2ccc(N)cc2)c1C` [Sulfisoxazole], the Cmax in data set [10] is 464 µM. In [8], this compound yielded a viability of 100%. Moreover, the “response profile over the CALUX battery (in words)” value in [7] (setting [11]) is “no effect”.
As for `COc1cc2c(c(OC)c1OC)-c1ccc(OC)c(=O)cc1[C@@H](NC(C)=O)CC2` [Colchicine], in data set [9], the cytotoxic concentration came to 50 nM and the PoD cytotoxicity is reported as 7.3 -log(M). The Cmax in data set [10] was 449 µM.
For `CCCCNC(=O)NS(=O)(=O)c1ccc(C)cc1` [Tolbutamide], the peak concentration (Cmax) in data set [10] was 196 µM. The compound also came in with a viability in [8] of 100%.
On to `CNC(=O)Oc1cccc2ccccc12` [Carbaryl], for which the “PoD PXR - ago” value in [2] is listed as 4.0 -log(M). Moreover, the “PoD p53” value in [4] is on record as 3.8 -log(M).
